Experimental data: patent US20200246241A1, “COSMETIC COMPOSITION FOR BLOCKING FINE DUST” (LG HOUSEHOLD & HEALTH CARE LTD., priority 2017, published 2020)
“Also recorded” adds a separate entry of the source.

Assay: Estimation of fine dust attachment on PMMA plate coated with artificial sebum
Settings: compared to control group or other compounds
Protocol: 1) Method for Estimating Fine Dust Attachment
i) After applying artificial sebum of 1.3 mg/cm^2 on a PMMA plate, it was dried for 15 minutes.
ii) After applying a test formulation on the dried artificial sebum in the same amount, it was dried for 15 minutes (Noting was applied on the control group).
iii) The PMMA plate was attached on the internal top of the self-made chamber, and a pan on the bottom of the chamber was operated for 5 minutes, to expose 0.5 g substitutive fine dusts (brand name LM-YG0510, comprising strontium carbonate, alumina, europium oxide, and dysprosium oxide).
iv) Using a magnifying glass (Aphrodite-3, 50×), UV images were photographed (measuring 4 points per plate).
v) Using ImagePro Plus, the area of dust attachment was measured.
vi) The fine dust attachment rate was calculated by comparing the sample with the result of 3 times of experiments (Setting the fine dust attachment rate of the control group to 100).

Compound | effect of preventing fine dust attachment (in words)
Nc1nc(N)nc(N)n1 [melamine, 1,3,5-triazine-2,4,6-triamine] | excellent effect of preventing fine dust attachment
CC(C)(C)CC(C)(C)c1cc(Cc2cc(C(C)(C)CC(C)(C)C)cc(-n3nc4ccccc4n3)c2O)c(O)c(-n2nc3ccccc3n2)c1 [Methylene Bis-Benzotriazolyl tetramethyl butylphenol] | excellent effect of preventing fine dust attachment; also recorded: excellent effect of reducing fine dust attachment
CCCCC(CC)COC(=O)c1ccc(Nc2nc(Nc3ccc(C(=O)NC(C)(C)C)cc3)nc(Nc3ccc(C(=O)OCC(CC)CCCC)cc3)n2)cc1 (stereo not drawn) [Diethylhexyl butamido triazone] | excellent effect of preventing fine dust attachment; also recorded: excellent effect of reducing fine dust attachment
CCCCC(CC)COC(=O)c1ccc(Nc2nc(Nc3ccc(C(=O)OCC(CC)CCCC)cc3)nc(Nc3ccc(C(=O)OCC(CC)CCCC)cc3)n2)cc1 (stereo not drawn) [ethylhexyl triazone] | excellent effect of preventing fine dust attachment; also recorded: excellent effect of reducing fine dust attachment
O=S(=O)([O-])c1cc(S(=O)(=O)O)cc2[nH]c(-c3ccc(-c4nc5c(S(=O)(=O)[O-])cc(S(=O)(=O)O)cc5[nH]4)cc3)nc12.[Na+].[Na+] [disodium phenyl dibenzimidazole tetrasulfonate] | excellent effect of preventing fine dust attachment; also recorded: excellent effect of reducing fine dust attachment
trisbiphenyl triazine | excellent effect of preventing fine dust attachment; also recorded: excellent effect of reducing fine dust attachment
